Where two headings read alike, the source gives them in different places.
Assays:
human cathepsin B = target: T1, human cathepsin B (Homo sapiens, UniProt P07858); assay: Effects on human cathepsin B enzymatic activity; format: biochemical; settings: read-out: % Inhibition
T1 construct: purchased Calbiochem
Protocol: (§1) Effects on human cathepsin B and L enzymatic activity
(§2) The anthraquinone monosulfonated and disulfonated compounds were dissolved in distilled water whereas the derivatives thereof were dissolved in dimethylsulfoxide. The concentration of the tested product was added to the reaction mixture in a volume of 100 μl.
(§3) Composition of the reaction mixture: 0.005M acetate buffer pH 6.0+2 mM cysteine+1 mM EDTA; Enzyme 1 U/ml (cathepsin B or L) (Calbiochem); substrate 0.2 mM Z-Phe-Arg-AMC (Novabiochem) final reaction volume 2 ml; temperature 25° C.; observation time for cathepsin B: 2 minutes; for L: 8 minutes. This is a fluorimetric determination wherein the excitation wavelength was 380 nm, the emission one being instead 460 nm. Fluorescence was read by means of a Perkin-Elmer spectrophotometer mod. LS-3B.
Anthraquinone-2,6-disulfonic acid: 1-5-10 μM
Anthraquinone-1,5-disulfonic acid: 1-5-10 μM
N,N'-(p-Ethoxyphenyl)-2,6-anthraquinone-disulfonamide: 1-10 μM.

human cathepsin L = target: T2, human cathepsin L (Homo sapiens, UniProt P07711); assay: Effects on human cathepsin L enzymatic activity; format: biochemical
T2 construct: purchased Calbiochem
T2 sequence (P07711 114-288 limits assumed): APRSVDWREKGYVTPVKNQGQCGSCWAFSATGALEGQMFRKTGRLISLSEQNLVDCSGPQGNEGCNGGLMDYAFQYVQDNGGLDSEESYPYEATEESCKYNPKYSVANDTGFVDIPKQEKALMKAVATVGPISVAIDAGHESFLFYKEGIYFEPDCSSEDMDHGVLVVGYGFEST
T2 sequence (P07711 292-333 limits assumed): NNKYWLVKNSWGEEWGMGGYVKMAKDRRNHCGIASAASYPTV
Protocol: as §1, §2, §3

[1] = system: copper "scavenging" of superoxide anion produced by the hypoxanthine/xanthine oxidase system; assay: Copper "scavenging" effect (superoxide anion from hypoxanthine/xanthine oxidase system, cytochrome C); format: biochemical; settings: for % Reduction (effect on copper "scavenging" action): hypoxanthine/xanthine oxidase, cytochrome c
From the text: The study involves the production of superoxide anion by means of the hypoxanthine/xanthine oxidase system and the target is the reduction in cytochrome C iron content. […] Copper chelants inhibit such a "scavenging" effect.

[2] = Adjuvant arthritis (Freund's complete adjuvant) in the rat: paw volume, radiography, histology; format: in vivo, rat (albino Sprague Dawley)
Protocol: The test evaluates the effect of the compounds anthraquinone-2,6-disulfonicacid and N,N'-diethylanthraquinone-2,6-disulfonamide on rheumatoid arthritis in the rat induced by administration of complete Freund's adjuvant. Diacetylrhein was used as control.
For the test, albino Sprague Dawley rats weighing 200±10 g, were subdivided into four groups of six animals each. All of the compounds were administered orally at a dosage of 20 mg/kg. Arthritis was induced administering all the animals, in the left rear paw, with 5 mg of Freund's complete adjuvant suspended in 0.05 ml of paraffin oil (prior to the treatment, the paw volume of both rear paws was measured). The treatment with the tested products started 5 days after the arthritis induction and was carried out for ten days. Al the end of this time, the animals were killed to effect the analysis of the following evaluation parameters: measurement of the volume of both left and right rear paws; Rx in lateral and antero-posterior position of the tibio-tarsal articulation of the left paw; histology evaluation of the articulation of both left and right rear paws.

ceruloplasmin = settings: acute phase of arthritis inflammation; background art; cited from earlier work
[3] = background art; cited from earlier work
[4] = background art (U.S. Pat. No. 4,244,968); cited from earlier work
elastase = settings: from man; Raimondi 1982, Zembower 1992; cited from earlier work
[5] = system: Chinese hamster ovary (CHO) cells; assay: Test of induction of chromosomal aberrations; format: cell-based; settings: for Aberrations complex (C) / Aberrations simple (S) / Aberrations S + C: 100 metaphases
Protocol: The clastogenetic effect of rhein and of 2,6-anthraquinonedisulfonic acid, was evaluated using the test of the induction of chromosomal aberrations in cell cultures of chinese hamster ovary (CHO). In this test, the cell line was treated with the tested substances and with suitable controls, in the presence of a metabolic activation system for four hours. After that, the cell in growth exponential phase were treated with colchicine (Colcemid^R) for 90 minutes, so as to obtain a significant number of cells in metaphase and to recover them for the preparation of the chromosome suspension. As the positive standard, cyclophosphamide was used (1-5-10-12.5-25 μg/ml).
The toxicity of the tested compounds was evaluated by means of the assay of the efficiency of plating, treating the cells for four hours, then seeding them at a concentration of 200 cells/5 ml of fresh culture medium.
On the ground of the results obtained by means of this test, dosages were selected for the treatment in the test of induction of chromosomal aberrations, so as not to exceed, with the highest dosage, 50% toxicity levels.
The chromosomal aberrations were recorded describing the type of structural damage. The numeric aberrations and gaps were discarded. Metaphases showing a good chromosomal opening, a good staining and an acceptable chromosome number (20±2) were selected. For statistical evaluations of the results, the quadratic Chi test was used.

cathepsin G = settings: from man; Raimondi 1982, Zembower 1992; cited from earlier work
[6] = system: superoxide anion from NADPH-dependent biological systems; settings: Mian M. et al. 1987; cited from earlier work

SMILES: O=C1c2cccc(S(=O)(=O)O)c2C(=O)c2cccc(S(=O)(=O)O)c21 [1,5-anthraquinonedisulfonic acid, Anthraquinone-1,5-disulfonic acid]
- inhibition at 1 µM (human cathepsin B; M (mean of experiments 1-3)): 3.4%
- inhibition at 1 µM (human cathepsin B; experiment n. 1): 4.1%
- inhibition at 1 µM (human cathepsin B; experiment n. 2): 3.6%
- inhibition at 1 µM (human cathepsin B; experiment n. 3): 2.5%
- inhibition at 5 µM (human cathepsin B; M (mean of experiments 1-3)): 9.6%
- inhibition at 5 µM (human cathepsin B; experiment n. 1): 10.3%
- inhibition at 5 µM (human cathepsin B; experiment n. 2): 7.2%
- inhibition at 5 µM (human cathepsin B; experiment n. 3): 11.4%
- inhibition at 10 µM (human cathepsin B; M (mean of experiments 1-3)): 44.4%
- inhibition at 10 µM (human cathepsin B; experiment n. 1): 55.1%
- inhibition at 10 µM (human cathepsin B; experiment n. 2): 36.6%
- inhibition at 10 µM (human cathepsin B; experiment n. 3): 41.6%
- inhibition at 1 µM (human cathepsin L; M (mean of tests 1-3)): 8.1%
- inhibition at 1 µM (human cathepsin L; test n. 1): 10.5%
- inhibition at 1 µM (human cathepsin L; test n. 2): 8.4%
- inhibition at 1 µM (human cathepsin L; test n. 3): 5.5%
- inhibition at 10 µM (human cathepsin L; M (mean of tests 1-3)): 54.3%
- inhibition at 10 µM (human cathepsin L; test n. 1): 48.6%
- inhibition at 10 µM (human cathepsin L; test n. 2): 60.5%
- inhibition at 10 µM (human cathepsin L; test n. 3): 53.9%
- % Reduction (effect on copper "scavenging" action) [1]: 4%

SMILES: CC(=O)Oc1cccc2c1C(=O)c1c(OC(C)=O)cc(C(=O)O)cc1C2=O [Diacetylrhein, diacetylrhein, reference compound]
- inhibition (reduction) of the increase in the volume of the left rear paw ([2]; 20 mg/kg orally, ten days, left rear paw): 8.3%
- effect on the increase in the volume of the right paw (in words) ([2]; 20 mg/kg orally, ten days, right paw): complete lack in activity
- formation of fibrous tissue in the articulation (histological examination) ([2]; 20 mg/kg orally, tibio-tarsal articulation): remarkably present
- Volume increase in the oedema after 15 days, left paw ([2]; 20 mg/kg/os, left (adjuvant-injected) rear paw, control 252 ± 26): 231 ± 22
- Volume increase in the oedema after 15 days, right paw ([2]; 20 mg/kg/os, right rear paw, control 77 ± 29): 92 ± 30
- inhibition of the formation of ceruloplasmin (ceruloplasmin): inhibits the formation of ceruloplasmin
- copper chelation [3]: copper chelating agent
- calcium chelation [4]: calcium chelating agent

SMILES: O=C(O)c1cc(O)c2c(c1)C(=O)c1cccc(O)c1C2=O [Rhein, rhein]
- inhibition of elastase activity (elastase): inhibits
- induction of chromosomal aberrations (in words) ([5]; doses of 100 and 200 μg/ml): positive
- Aberrations complex (C) ([5]; rhein 25 μg/ml): 1
- Aberrations simple (S) ([5]; rhein 25 μg/ml): 1
- Aberrations S + C ([5]; rhein 25 μg/ml, N.S.): 2
- Aberrations complex (C) ([5]; rhein 50 μg/ml): 3
- Aberrations simple (S) ([5]; rhein 50 μg/ml): 1
- Aberrations S + C ([5]; rhein 50 μg/ml, N.S.): 4
- Aberrations complex (C) ([5]; rhein 100 μg/ml): 6
- Aberrations simple (S) ([5]; rhein 100 μg/ml): 3
- Aberrations S + C ([5]; rhein 100 μg/ml, P < 0.05): 9
- Aberrations complex (C) ([5]; rhein 200 μg/ml): 5
- Aberrations simple (S) ([5]; rhein 200 μg/ml): 3
- Aberrations S + C ([5]; rhein 200 μg/ml, P < 0.05): 8
- inhibition of copper "scavenging" effect (in words) [1]: inhibits said effect
- % Reduction (effect on copper "scavenging" action) [1]: 45%
- inhibition of cathepsin G activity (cathepsin G): inhibits
- inhibition of formation and release of the superoxide anion [6]: inhibits the formation and release of the superoxide anion
